For assay [1], the system named is PC3 cells. Kind of assay: PC3 growth inhibition (Cell-titer glo, 72 hours). The assay is classed as cell-based. The settings on record: Homo sapiens, PC-3, 72 h, read-out: Percent Viability, PC3 cells, compound concentration 1.667 μM, 72 hours. On the procedure:
The invention also provides compounds that inhibit cell growth. The ability of a compound of the invention to inhibit the growth of cells can be measured using a variety of methods known in the art. For example, the ability of a compound of the invention to inhibit the growth of PC3 cells can be measured. PC3 cells can be plated and incubated overnight under CO2. For each measurement, a compound of the invention (or vehicle e.g., DMSO) can be diluted with AIM serum free medium and added to the cell plate. The cell plate can then be incubated for 72 h under CO2. Cell-titer glo solution can be added and the plates can be incubated protected from light and the amount of luminescences can be measured. Concentration response curves can be generated by calculating the luminescence increase in test compound treated samples relative to DMSO-treated controls. Percentage remaining viability values at a single concentration can be measured. Growth inhibition (GI50) or cell viability (LD50) values can be determined from thoses curves. In one embodiment, compounds of the invention have a percent viability in PC3 line @ 1.667 uM of <1%. In one embodiment, compounds of the invention have a percent viability in PC3 line @ 1.667 uM of <2%. In one embodiment, compounds of the invention have a percent viability in PC3 line @ 1.667 uM of <3%. In one embodiment, compounds of the invention have a percent viability in PC3 line @ 1.667 uM of <4%. In one embodiment, compounds of the invention have a percent viability in PC3 line @ 1.667 uM of <5%. In one embodiment, compounds of the invention have a percent viability in PC3 line @ 1.667 uM of <10%. In one embodiment, compounds of the invention have a percent viability in PC3 line @ 1.667 uM of <50%.
To measure PC3 growth inhibition, PC3 cells that were maintained in RPMI1640 growth medium (Life Technologies; Cat. No. 11875) at 37° C. under 5% CO2 are trypsinized and diluted at a density of 8×10^4 cells/ml, 25 ul per well of cells and plated in 384-well black tissue culture plate. The cells are incubated overnight at 37° C. under 5% CO2. For each measurement, a test compound or vehicle DMSO control is diluted with AIM serum free medium and added to the cell plate. The cell plate is incubated for 72 hours at 37° C. under 5% CO2. 25 μl Cell-titer glo solution (Promega; Cat. No. G8462) is added and the cell plates are incubated for 10 minutes protected from light. The luminescence is measured. Concentration response curves are generated by calculating the luminescence increase in test compound-treated samples relative to DMSO-treated controls. Percentage remaining viability values at a single concentration, growth inhibition (GI50) or cell viability (LD50) values are determined from those curves. One skilled in the art will appreciate that these values are subject to experimental variation.

Assay [2] addresses hNAMPT protein (Homo sapiens (Human), UniProt P43490). The assay is described as follows: NAMPT enzyme assay (TR-FRET/HTRF with BodiPY ligand). The note with it: for pIC50: NAMPT inhibition, IC50 range class. The assay is classed as binding. The source says:
As discussed above, the invention provides compounds that are useful as inhibitors of the enzyme NAMPT. The NAMPT inhibition of a compound of the invention can be measured using a variety of methods known in the art. For example, the ability of a compound of the invention to inhibit NAMPT enzyme activity can be measured using a homogeneous time resolved fluorescence (HTRF) assay using hNAMPT protein and anti 6His-Tb in buffer treated with a compound of the invention (or control e.g., DMSO) and BodiPY ligand. The TR-FRET signal can be measured using a high throughput microplate reader (e.g., Pherastar). Excitation can be carried out at 320 nm. The percent inhibition value at a single concentration of compound of the invention can be calculated relative to a control treated sample. A concentration response curve can be generated for each compound of the invention and the curve fitted to generate an IC50 value. […] To measure the inhibition of NAMPT activity hNAMPT protein stock and anti 6His-Tb (Cisbio; Cat. No. […]TLB) is diluted to 3× final concentration with assay buffer (50 mM Tris-HCl (pH 7.5), 1 mM DTT, 100 mM NaCl, 10 mM MgCl2, 0.005% Tween 20). To this solution is added a test compound or vehicle control (DMSO) and BodiPY ligand (structure below). The plate is shaken for 1-2 min sealed and incubated for 1 h at rt in the dark. The TR-FRET signal is measured using BMG Pherastar (Lanthascreen protocol on BMG Pherastar). Excitation was carried out at 320 nm, and the ratio of emission of BodiPY (520 nm) to terbium (486 nm) was determined. Concentration response curves are generated by calculating the excitation increase in test compound-treated samples relative to DMSO-treated controls. For the assay method described above, test compound percent inhibition values at a single concentration are calculated relative to control (DMSO) treated samples. Compound concentration response curves are fitted to generate IC50 values from those curves. One skilled in the art will appreciate that these values generated either as percentage inhibition at a single concentration or IC50 values are subject to experimental variation.

Setting [3] is: NAMPT inhibition at compound concentration 1 μM, read-out: Percent Inhibition.

SMILES strings stand for the structures. pIC50: −log10 of the molar value. Read-outs that look alike come from different tables or passages of the source.

Sequence of hNAMPT protein (P43490 whole entry): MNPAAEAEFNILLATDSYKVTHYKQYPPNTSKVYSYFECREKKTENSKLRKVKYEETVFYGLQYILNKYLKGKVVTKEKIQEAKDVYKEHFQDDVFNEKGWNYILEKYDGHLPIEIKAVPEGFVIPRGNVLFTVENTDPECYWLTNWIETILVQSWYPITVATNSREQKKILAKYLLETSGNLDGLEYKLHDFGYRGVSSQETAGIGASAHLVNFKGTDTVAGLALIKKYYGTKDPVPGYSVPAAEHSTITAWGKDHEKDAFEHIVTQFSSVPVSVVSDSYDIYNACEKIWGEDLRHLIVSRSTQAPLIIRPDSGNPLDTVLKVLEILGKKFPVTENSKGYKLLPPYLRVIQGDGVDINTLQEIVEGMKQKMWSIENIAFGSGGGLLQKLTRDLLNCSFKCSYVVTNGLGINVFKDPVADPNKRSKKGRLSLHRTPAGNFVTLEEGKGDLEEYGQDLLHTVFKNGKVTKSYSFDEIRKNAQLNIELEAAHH

The term inhibition denotes the relative decrease from the control value, in per cent. In general, pIC50 refers to the IC50 on a negative log10 scale, so that one unit is a factor of ten. High values mean a low IC50, low ones a high IC50. Take `Cc1cc(-c2nc(-c3ccc(F)cc3)nc3cc(C(=O)NCCCc4nnc[nH]4)ccc23)ccn1` [Compound I-162, 2-(4-fluorophenyl)-4-(2-methylpyridin-4-yl)-N-[3-(4H-1,2,4-triazol-3-yl)propyl]quinazoline-7-carboxamide]: the viability at 1.667 µM in assay [1] was determined as 2%. For the same molecule, the inhibition at 1 µM in assay [2] (setting [3]) came to 94%. In assay [2], this molecule had a pIC50 of 7.30 to 8.00.
The like results for `CCOc1cc(-c2ccc(F)cc2)nc2cc(C(=O)NCCc3cn[nH]c3)ccc12` [Compound I-48, 4-ethoxy-2-(4-fluorophenyl)-N-[2-(1H-pyrazol-4-yl)ethyl]quinoline-7-carboxamide] were, in that order, 4%, 97% and 7.30 to 8.00.
For `CCOc1cc(-c2ccc(Cl)s2)nc2cc(C(=O)NCc3nc4cnccc4[nH]3)ccc12` [Compound I-175, 2-(5-chloro-2-thienyl)-4-ethoxy-N-(1H-imidazo[4,5-c]pyridin-2-ylmethyl)quinoline-7-carboxamide], in assay [1], the viability at 1.667 µM came to 2%. In addition, the inhibition at 0.33 µM in assay [2] (NAMPT inhibition at compound concentration 0.33 μM, read-out: Percent Inhibition) was found to be 98%. Further, the pIC50 in assay [2] is greater than 8.00.
As for `CCOc1cc(-c2ccc(Cl)cc2)nc2cc(C(=O)NCCCc3ncc[nH]3)ccc12` [Compound I-13, 2-(4-chlorophenyl)-4-ethoxy-N-[3-(1H-imidazol-2-yl)propyl]quinoline-7-carboxamide], the viability at 1.667 µM in assay [1] is 0%. The molecule also had a negative-log IC50 (pIC50) in assay [2] greater than 8.00. Besides, the inhibition at 1 µM in assay [2] (read-out: Percent Inhibition) is greater than 99%.
On to `CCOc1cc(-c2ccc(OC)nc2)nc2cc(C(=O)NCCc3c[nH]nn3)ccc12` [Compound I-185, 4-ethoxy-2-(6-methoxypyridin-3-yl)-N-[2-(1H-1,2,3-triazol-4-yl)ethyl]quinoline-7-carboxamide], for which, in assay [1], the viability at 1.667 µM turned out to be 2%. In assay [2] (setting [3]), the inhibition at 1 µM is 98%. This molecule also showed a negative-log IC50 (pIC50) in assay [2] of 7.30 to 8.00.
The like results for `CCOc1cc(-c2ccc(OC)nc2)nc2cc(C(=O)NCCCc3[nH]nnc3C)ccc12` [Compound I-93, 4-ethoxy-2-(6-methoxypyridin-3-yl)-N-[3-(4-methyl-1H-1,2,3-triazol-5-yl)propyl]quinoline-7-carboxamide] were, in that order, 2%, 99% and 7.30 to 8.00.
The like results for `CCOc1cc(-c2cc(F)ccc2OC)nc2cc(C(=O)NCCc3nnc[nH]3)ccc12` [Compound I-182, 4-ethoxy-2-(5-fluoro-2-methoxyphenyl)-N-[2-(4H-1,2,4-triazol-3-yl)ethyl]quinoline-7-carboxamide] were, in that order, 5%, 77% and less than 7.00.
The like results for `COCCOc1nc(-c2ccc(F)cc2)nc2cc(C(=O)NCCCc3ncc[nH]3)ccc12` [Compound I-37, 2-(4-fluorophenyl)-N-[3-(1H-imidazol-2-yl)propyl]-4-(2-methoxyethoxy)quinazoline-7-carboxamide] were, in that order, 2%, greater than 99% and greater than 8.00.
As to `CCOc1cc(-c2ccn(C)c(=O)c2)nc2cc(C(=O)NCCCc3cc[nH]n3)ccc12` [Compound I-119, 4-ethoxy-2-(1-methyl-2-oxo-1,2-dihydropyridin-4-yl)-N-[3-(1H-pyrazol-3-yl)propyl]quinoline-7-carboxamide], in assay [1], the viability at 1.667 µM is 2%. Also, in assay [2] (setting [3]), the inhibition at 1 µM turned out to be 100%. The molecule also gave a pIC50 in assay [2] of 7.30 to 8.00.
The like results for `CCOc1cc(-c2ccnc(OC)c2)nc2cc(C(=O)NCCc3nnc[nH]3)ccc12` [Compound I-191, 4-ethoxy-2-(2-methoxypyridin-4-yl)-N-[2-(4H-1,2,4-triazol-3-yl)ethyl]quinoline-7-carboxamide] were, in that order, 10%, 79% and less than 7.00.
The like results for `Cc1cc(-c2cc(-c3ccc(F)cc3)c3ccc(C(=O)NCCCc4nnc[nH]4)cc3n2)ccn1` [Compound I-157, N-(3-(4H-1,2,4-triazol-3-yl)propyl)-4-(4-fluorophenyl)-2-(2-methylpyridin-4-yl)quinoline-7-carboxamide] were, in that order, 5%, 89% and 7.00 to 7.30.
The like results for `O=C(NCCCc1ncc[nH]1)c1ccc2c(OCC3CC3)nc(-c3ccc(F)cc3)nc2c1` [Compound I-40, 4-(cyclopropylmethoxy)-2-(4-fluorophenyl)-N-[3-(1H-imidazol-2-yl)propyl]quinazoline-7-carboxamide] were, in that order, 3%, greater than 99% and greater than 8.00.
For `CCOc1cc(-c2ccc(F)cc2)nc2cc(C(=O)NCCCc3cncnc3)ccc12` [Compound I-228, 4-ethoxy-2-(4-fluorophenyl)-N-[3-(pyrimidin-5-yl)propyl]quinoline-7-carboxamide], in assay [1], the viability at 1.667 µM was 5%. For the same molecule, the inhibition at 1 µM in assay [2] (setting [3]) was 94%. The same molecule gave a pIC50 in assay [2] greater than 8.00.
For the molecule `CCOc1cc(-c2cccc(S(C)(=O)=O)c2)nc2cc(C(=O)NCCCc3nnc[nH]3)ccc12` [Compound I-137, 4-ethoxy-2-[3-(methylsulfonyl)phenyl]-N-[3-(4H-1,2,4-triazol-3-yl)propyl]quinoline-7-carboxamide], the viability at 1.667 µM in assay [1] was 2%. Further, the inhibition at 1 µM in assay [2] (setting [3]) turned out to be 97%. Besides, the negative logarithm of the IC50 (pIC50) in assay [2] is 7.30 to 8.00.
The like results for `CCOc1cc(-c2ccnc(C)c2)nc2cc(C(=O)NCc3nc4cnccc4[nH]3)ccc12` [Compound I-99, 4-ethoxy-N-(1H-imidazo[4,5-c]pyridin-2-ylmethyl)-2-(2-methylpyridin-4-yl)quinoline-7-carboxamide] were, in that order, 2%, greater than 99% and greater than 8.00.
The like results for `CCOc1cc(-c2ccc(F)cc2OC)nc2cc(C(=O)NCCc3ncn[nH]3)ccc12` [Compound I-170, 4-ethoxy-2-(4-fluoro-2-methoxyphenyl)-N-[2-(1H-1,2,4-triazol-5-yl)ethyl]quinoline-7-carboxamide] were, in that order, 2%, 93% and 7.00 to 7.30.
In the case of `CCOc1cc(-c2ccnc(C)c2)nc2cc(C(=O)NCCCc3[nH]nnc3C)ccc12` [Compound I-75, 4-ethoxy-2-(2-methylpyridin-4-yl)-N-[3-(4-methyl-1H-1,2,3-triazol-5-yl)propyl]quinoline-7-carboxamide], the viability at 1.667 µM in assay [1] turned out to be 1%. The inhibition at 1 µM in assay [2] (setting [3]) came to 94%. Also, the negative-log IC50 (pIC50) in assay [2] is 7.30 to 8.00.

The values are drawn from patent US10323018B2 (Millennium Pharmaceuticals, Inc., priority 2015, dated 2019).
